Source: patent US20210292710A1, “METHOD FOR ENHANCING IMMUNE FUNCTION OF IMMUNE CELL AND IMMUNE CELL LINE PRODUCED USING THE SAME” (INDUSTRY-ACADEMIC COOPERATION FOUNDATION, YONSEI UNIVERSITY, priority 2020, published 2021)

System: enzymes involved in glycolysis of T cells
Assay: mRNA expression of enzymes involved in T cell glycolysis
Assay type: cell-based, mouse
Conditions: CD3+ T cells activated 72 hours with anti-CD3 and anti-CD28 beads
Protocol: Thus, referring to FIG. 4B, the results of mRNA expression of enzymes involved in glycolysis of T cells due to PI3K inhibitor treatment are shown. In this connection, in order to identify enzymes involved in glycolysis of T cells due to PI3K inhibitor treatment, the CD3+ T cells obtained in FIG. 2 are used. Furthermore, the obtained CD3+ T cell is activated for 72 hours using anti-CD3 and anti-CD28 beads to identify mRNA expression of enzymes involved in glycolysis. In this connection, CD3 secretes cytokine as a protein immunomodulator, and CD28 inhibits apoptosis. Only CD3-activated T cells may lead to apoptosis. Therefore, both CD3 and CD28 signals are used to increase T cell function and survival.

In the case of `Nc1cc(C(F)(F)F)c(-c2cc(N3CCOCC3)nc(N3CCOCC3)n2)cn1` [BKM 120, buparlisib], the “mRNA expression of each glycolysis enzyme versus spleen T cells and CD3+CD28-stimulated T cells” value is reported as “higher”.
